This is an account of results in ChEMBL document CHEMBL5442219.

Common to all, as to conditions: Compound concentration 10 µM
The target of assay [1] is T1, Alpha-2C adrenergic receptor (Homo sapiens) (UniProt P18825).
T1 sequence (whole entry): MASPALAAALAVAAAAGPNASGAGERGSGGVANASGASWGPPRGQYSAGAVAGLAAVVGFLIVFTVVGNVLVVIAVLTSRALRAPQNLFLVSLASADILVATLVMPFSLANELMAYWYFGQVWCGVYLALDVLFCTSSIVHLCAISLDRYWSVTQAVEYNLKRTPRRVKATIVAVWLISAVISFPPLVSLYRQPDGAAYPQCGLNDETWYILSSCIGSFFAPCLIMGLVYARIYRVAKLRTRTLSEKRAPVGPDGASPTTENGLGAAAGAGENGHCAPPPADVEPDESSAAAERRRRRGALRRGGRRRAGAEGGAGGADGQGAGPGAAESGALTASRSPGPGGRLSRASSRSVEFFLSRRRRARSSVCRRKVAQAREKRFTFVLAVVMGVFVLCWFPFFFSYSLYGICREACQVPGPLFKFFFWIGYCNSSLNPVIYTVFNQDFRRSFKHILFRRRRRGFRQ
Description: PDSP Primary Binding target: ADRA2C - Compounds are tested at 10 uM concentration, plate are incubated at room temperature in the dark for 90 minutes. Reaction are stopped by vacuum filtration onto 0.3% polyethyleneimine soaked filter mats using Filtermate harvester. Scintilation cocktail is then melted onto microwave-dried filters on a hot plate and the radio activity is counted in Microbia counter.

Assay [2] addresses T2, Alpha-1A adrenergic receptor (Homo sapiens) (UniProt P35348).
T2 sequence (whole entry): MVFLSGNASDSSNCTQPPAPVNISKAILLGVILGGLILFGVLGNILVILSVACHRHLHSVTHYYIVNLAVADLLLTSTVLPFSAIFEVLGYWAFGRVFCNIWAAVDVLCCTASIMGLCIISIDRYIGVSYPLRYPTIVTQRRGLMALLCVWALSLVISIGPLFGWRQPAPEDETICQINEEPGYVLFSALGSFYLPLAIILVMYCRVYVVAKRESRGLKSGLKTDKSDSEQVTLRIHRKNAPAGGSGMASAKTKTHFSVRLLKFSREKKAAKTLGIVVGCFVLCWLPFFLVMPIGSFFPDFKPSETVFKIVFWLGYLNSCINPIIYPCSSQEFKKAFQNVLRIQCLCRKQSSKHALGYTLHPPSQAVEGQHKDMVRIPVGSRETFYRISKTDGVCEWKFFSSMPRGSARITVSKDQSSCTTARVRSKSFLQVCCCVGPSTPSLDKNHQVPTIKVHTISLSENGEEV
Description: PDSP Primary Binding target: ADRA1A - Compounds are tested at 10 uM concentration, plate are incubated at room temperature in the dark for 90 minutes. Reaction are stopped by vacuum filtration onto 0.3% polyethyleneimine soaked filter mats using Filtermate harvester. Scintilation cocktail is then melted onto microwave-dried filters on a hot plate and the radio activity is counted in Microbia counter.

For assay [3], the target named is Beta-1 adrenergic receptor (Homo sapiens) (UniProt P08588).
Description: PDSP Primary Binding target: ADRB1 - Compounds are tested at 10 uM concentration, plate are incubated at room temperature in the dark for 90 minutes. Reaction are stopped by vacuum filtration onto 0.3% polyethyleneimine soaked filter mats using Filtermate harvester. Scintilation cocktail is then melted onto microwave-dried filters on a hot plate and the radio activity is counted in Microbia counter.
The target of assay [4] is Sigma non-opioid intracellular receptor 1 (Homo sapiens) (UniProt Q99720).
Description: PDSP Primary Binding target: SIGMAR1 - Compounds are tested at 10 uM concentration, plate are incubated at room temperature in the dark for 90 minutes. Reaction are stopped by vacuum filtration onto 0.3% polyethyleneimine soaked filter mats using Filtermate harvester. Scintilation cocktail is then melted onto microwave-dried filters on a hot plate and the radio activity is counted in Microbia counter.
The target in assay [5] is Sodium-dependent serotonin transporter (Homo sapiens) (UniProt P31645).
Description: PDSP Primary Binding target: SLC6A4 - Compounds are tested at 10 uM concentration, plate are incubated at room temperature in the dark for 90 minutes. Reaction are stopped by vacuum filtration onto 0.3% polyethyleneimine soaked filter mats using Filtermate harvester. Scintilation cocktail is then melted onto microwave-dried filters on a hot plate and the radio activity is counted in Microbia counter.
In assay [6] the target is D(1B) dopamine receptor (Homo sapiens) (UniProt P21918).
Description: PDSP Primary Binding target: DRD5 - Compounds are tested at 10 uM concentration, plate are incubated at room temperature in the dark for 90 minutes. Reaction are stopped by vacuum filtration onto 0.3% polyethyleneimine soaked filter mats using Filtermate harvester. Scintilation cocktail is then melted onto microwave-dried filters on a hot plate and the radio activity is counted in Microbia counter.
Assay [7] concerns the target Histamine H3 receptor (Homo sapiens) (UniProt Q9Y5N1).
Description: PDSP Primary Binding target: HRH3 - Compounds are tested at 10 uM concentration, plate are incubated at room temperature in the dark for 90 minutes. Reaction are stopped by vacuum filtration onto 0.3% polyethyleneimine soaked filter mats using Filtermate harvester. Scintilation cocktail is then melted onto microwave-dried filters on a hot plate and the radio activity is counted in Microbia counter.
The target in assay [8] is 5-hydroxytryptamine receptor 6 (Homo sapiens) (UniProt P50406).
Description: PDSP Primary Binding target: HTR6 - Compounds are tested at 10 uM concentration, plate are incubated at room temperature in the dark for 90 minutes. Reaction are stopped by vacuum filtration onto 0.3% polyethyleneimine soaked filter mats using Filtermate harvester. Scintilation cocktail is then melted onto microwave-dried filters on a hot plate and the radio activity is counted in Microbia counter.
Assay [9] concerns the target 5-hydroxytryptamine receptor 2A (Homo sapiens) (UniProt P28223).
Description: PDSP Primary Binding target: HTR2A - Compounds are tested at 10 uM concentration, plate are incubated at room temperature in the dark for 90 minutes. Reaction are stopped by vacuum filtration onto 0.3% polyethyleneimine soaked filter mats using Filtermate harvester. Scintilation cocktail is then melted onto microwave-dried filters on a hot plate and the radio activity is counted in Microbia counter.
Assay [10] has as its target Kappa-type opioid receptor (Homo sapiens) (UniProt P41145).
Description: PDSP Primary Binding target: OPRK1 - Compounds are tested at 10 uM concentration, plate are incubated at room temperature in the dark for 90 minutes. Reaction are stopped by vacuum filtration onto 0.3% polyethyleneimine soaked filter mats using Filtermate harvester. Scintilation cocktail is then melted onto microwave-dried filters on a hot plate and the radio activity is counted in Microbia counter.
For assay [11], the target named is 5-hydroxytryptamine receptor 7 (Homo sapiens) (UniProt P34969).
Description: PDSP Primary Binding target: HTR7 - Compounds are tested at 10 uM concentration, plate are incubated at room temperature in the dark for 90 minutes. Reaction are stopped by vacuum filtration onto 0.3% polyethyleneimine soaked filter mats using Filtermate harvester. Scintilation cocktail is then melted onto microwave-dried filters on a hot plate and the radio activity is counted in Microbia counter.
The target in assay [12] is Translocator protein (Homo sapiens) (UniProt P30536).
Description: PDSP Primary Binding target: TSPO - Compounds are tested at 10 uM concentration, plate are incubated at room temperature in the dark for 90 minutes. Reaction are stopped by vacuum filtration onto 0.3% polyethyleneimine soaked filter mats using Filtermate harvester. Scintilation cocktail is then melted onto microwave-dried filters on a hot plate and the radio activity is counted in Microbia counter.
Assay [13] concerns the target T3, Muscarinic acetylcholine receptor M2 (Homo sapiens) (UniProt P08172).
T3 sequence (whole entry): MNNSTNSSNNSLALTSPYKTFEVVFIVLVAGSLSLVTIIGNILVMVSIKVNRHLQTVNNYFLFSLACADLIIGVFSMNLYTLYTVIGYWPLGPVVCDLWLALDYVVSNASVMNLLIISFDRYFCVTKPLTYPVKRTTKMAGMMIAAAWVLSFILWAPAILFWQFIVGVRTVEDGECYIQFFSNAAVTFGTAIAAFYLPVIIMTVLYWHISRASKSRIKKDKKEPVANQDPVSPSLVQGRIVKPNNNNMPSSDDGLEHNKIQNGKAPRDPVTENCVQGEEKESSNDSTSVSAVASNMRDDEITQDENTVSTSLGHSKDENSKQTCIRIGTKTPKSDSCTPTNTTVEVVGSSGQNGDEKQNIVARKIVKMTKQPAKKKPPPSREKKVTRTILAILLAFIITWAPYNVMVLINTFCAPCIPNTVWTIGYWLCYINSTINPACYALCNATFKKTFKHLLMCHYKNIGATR
Description: PDSP Primary Binding target: CHRM2 - Compounds are tested at 10 uM concentration, plate are incubated at room temperature in the dark for 90 minutes. Reaction are stopped by vacuum filtration onto 0.3% polyethyleneimine soaked filter mats using Filtermate harvester. Scintilation cocktail is then melted onto microwave-dried filters on a hot plate and the radio activity is counted in Microbia counter.

Assay [14] deals with 5-hydroxytryptamine receptor 1E (Homo sapiens) (UniProt P28566).
Description: PDSP Primary Binding target: HTR1E - Compounds are tested at 10 uM concentration, plate are incubated at room temperature in the dark for 90 minutes. Reaction are stopped by vacuum filtration onto 0.3% polyethyleneimine soaked filter mats using Filtermate harvester. Scintilation cocktail is then melted onto microwave-dried filters on a hot plate and the radio activity is counted in Microbia counter.
In assay [15] the target is T4, 5-hydroxytryptamine receptor 3A (Homo sapiens) (UniProt P46098).
T4 sequence (whole entry): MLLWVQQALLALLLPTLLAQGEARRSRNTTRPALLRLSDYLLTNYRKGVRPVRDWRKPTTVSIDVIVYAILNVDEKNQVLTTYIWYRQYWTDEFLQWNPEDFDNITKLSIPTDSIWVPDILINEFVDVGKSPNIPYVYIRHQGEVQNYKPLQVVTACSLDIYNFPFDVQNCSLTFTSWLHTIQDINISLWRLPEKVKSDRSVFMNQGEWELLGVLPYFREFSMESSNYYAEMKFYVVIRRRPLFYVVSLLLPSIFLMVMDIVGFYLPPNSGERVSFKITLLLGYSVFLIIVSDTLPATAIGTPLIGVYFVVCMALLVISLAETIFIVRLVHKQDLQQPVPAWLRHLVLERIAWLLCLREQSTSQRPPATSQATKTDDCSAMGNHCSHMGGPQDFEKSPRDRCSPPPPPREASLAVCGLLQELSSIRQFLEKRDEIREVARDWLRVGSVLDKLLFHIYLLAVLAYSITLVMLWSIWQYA
Description: PDSP Primary Binding target: HTR3A - Compounds are tested at 10 uM concentration, plate are incubated at room temperature in the dark for 90 minutes. Reaction are stopped by vacuum filtration onto 0.3% polyethyleneimine soaked filter mats using Filtermate harvester. Scintilation cocktail is then melted onto microwave-dried filters on a hot plate and the radio activity is counted in Microbia counter.

Assay [16] concerns the target Delta-type opioid receptor (Homo sapiens) (UniProt P41143).
Description: PDSP Primary Binding target: OPRD1 - Compounds are tested at 10 uM concentration, plate are incubated at room temperature in the dark for 90 minutes. Reaction are stopped by vacuum filtration onto 0.3% polyethyleneimine soaked filter mats using Filtermate harvester. Scintilation cocktail is then melted onto microwave-dried filters on a hot plate and the radio activity is counted in Microbia counter.
Assay [17] deals with D(2) dopamine receptor (Homo sapiens) (UniProt P14416).
Description: PDSP Primary Binding target: DRD2 - Compounds are tested at 10 uM concentration, plate are incubated at room temperature in the dark for 90 minutes. Reaction are stopped by vacuum filtration onto 0.3% polyethyleneimine soaked filter mats using Filtermate harvester. Scintilation cocktail is then melted onto microwave-dried filters on a hot plate and the radio activity is counted in Microbia counter.
The target of assay [18] is Sigma intracellular receptor 2 (Homo sapiens) (UniProt Q5BJF2).
Description: PDSP Primary Binding target: TMEM97 - Compounds are tested at 10 uM concentration, plate are incubated at room temperature in the dark for 90 minutes. Reaction are stopped by vacuum filtration onto 0.3% polyethyleneimine soaked filter mats using Filtermate harvester. Scintilation cocktail is then melted onto microwave-dried filters on a hot plate and the radio activity is counted in Microbia counter.
Assay [19] addresses 5-hydroxytryptamine receptor 1B (Homo sapiens) (UniProt P28222).
Description: PDSP Primary Binding target: HTR1B - Compounds are tested at 10 uM concentration, plate are incubated at room temperature in the dark for 90 minutes. Reaction are stopped by vacuum filtration onto 0.3% polyethyleneimine soaked filter mats using Filtermate harvester. Scintilation cocktail is then melted onto microwave-dried filters on a hot plate and the radio activity is counted in Microbia counter.
Assay [20] deals with D(1A) dopamine receptor (Homo sapiens) (UniProt P21728).
Sequence of D(1A) dopamine receptor (Homo sapiens) (P21728 whole entry): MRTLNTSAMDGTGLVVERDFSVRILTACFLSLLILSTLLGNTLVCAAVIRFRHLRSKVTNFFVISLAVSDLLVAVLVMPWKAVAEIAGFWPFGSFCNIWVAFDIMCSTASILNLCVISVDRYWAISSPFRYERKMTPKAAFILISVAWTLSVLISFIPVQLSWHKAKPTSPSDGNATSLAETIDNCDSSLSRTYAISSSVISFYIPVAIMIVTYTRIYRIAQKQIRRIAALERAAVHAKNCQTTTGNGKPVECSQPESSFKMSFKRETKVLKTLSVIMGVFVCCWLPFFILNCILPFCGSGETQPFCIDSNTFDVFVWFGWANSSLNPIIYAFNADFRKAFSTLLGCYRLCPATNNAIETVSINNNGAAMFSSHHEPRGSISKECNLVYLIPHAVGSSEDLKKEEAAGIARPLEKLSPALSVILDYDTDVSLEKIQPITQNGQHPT
Description: PDSP Primary Binding target: DRD1 - Compounds are tested at 10 uM concentration, plate are incubated at room temperature in the dark for 90 minutes. Reaction are stopped by vacuum filtration onto 0.3% polyethyleneimine soaked filter mats using Filtermate harvester. Scintilation cocktail is then melted onto microwave-dried filters on a hot plate and the radio activity is counted in Microbia counter.

Sequence of Delta-type opioid receptor (Homo sapiens) (P41143 whole entry): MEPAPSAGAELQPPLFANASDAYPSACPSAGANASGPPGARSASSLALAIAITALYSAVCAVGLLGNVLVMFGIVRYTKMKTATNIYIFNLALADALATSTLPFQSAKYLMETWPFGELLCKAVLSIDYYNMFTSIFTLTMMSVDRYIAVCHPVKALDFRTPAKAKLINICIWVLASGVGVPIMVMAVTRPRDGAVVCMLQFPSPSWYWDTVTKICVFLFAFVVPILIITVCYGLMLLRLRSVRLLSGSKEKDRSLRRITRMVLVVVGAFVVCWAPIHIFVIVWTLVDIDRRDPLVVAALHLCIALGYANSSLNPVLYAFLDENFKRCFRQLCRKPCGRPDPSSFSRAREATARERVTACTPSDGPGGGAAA
Sequence of Sigma non-opioid intracellular receptor 1 (Homo sapiens) (Q99720 whole entry): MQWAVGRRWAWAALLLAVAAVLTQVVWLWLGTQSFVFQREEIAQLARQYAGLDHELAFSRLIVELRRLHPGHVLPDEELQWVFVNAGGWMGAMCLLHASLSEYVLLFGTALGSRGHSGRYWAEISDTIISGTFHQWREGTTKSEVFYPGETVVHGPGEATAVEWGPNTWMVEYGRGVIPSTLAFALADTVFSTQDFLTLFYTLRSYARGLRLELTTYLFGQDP
Sequence of Translocator protein (Homo sapiens) (P30536 whole entry): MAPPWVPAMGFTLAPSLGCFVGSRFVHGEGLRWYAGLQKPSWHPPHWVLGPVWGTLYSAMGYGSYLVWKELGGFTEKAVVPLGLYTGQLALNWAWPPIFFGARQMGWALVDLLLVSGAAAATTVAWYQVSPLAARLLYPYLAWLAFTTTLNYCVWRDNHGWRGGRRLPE
Sequence of Kappa-type opioid receptor (Homo sapiens) (P41145 whole entry): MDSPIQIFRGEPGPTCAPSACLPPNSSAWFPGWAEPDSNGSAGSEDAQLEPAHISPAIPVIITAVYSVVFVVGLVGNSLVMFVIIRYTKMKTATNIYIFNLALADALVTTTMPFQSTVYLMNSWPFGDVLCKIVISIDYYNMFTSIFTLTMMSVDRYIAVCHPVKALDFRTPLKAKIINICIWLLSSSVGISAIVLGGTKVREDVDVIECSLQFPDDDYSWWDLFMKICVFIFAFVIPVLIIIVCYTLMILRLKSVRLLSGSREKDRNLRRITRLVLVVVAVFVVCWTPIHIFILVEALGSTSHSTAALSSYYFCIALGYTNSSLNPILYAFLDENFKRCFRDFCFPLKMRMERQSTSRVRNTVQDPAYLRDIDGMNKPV
Sequence of 5-hydroxytryptamine receptor 2A (Homo sapiens) (P28223 whole entry): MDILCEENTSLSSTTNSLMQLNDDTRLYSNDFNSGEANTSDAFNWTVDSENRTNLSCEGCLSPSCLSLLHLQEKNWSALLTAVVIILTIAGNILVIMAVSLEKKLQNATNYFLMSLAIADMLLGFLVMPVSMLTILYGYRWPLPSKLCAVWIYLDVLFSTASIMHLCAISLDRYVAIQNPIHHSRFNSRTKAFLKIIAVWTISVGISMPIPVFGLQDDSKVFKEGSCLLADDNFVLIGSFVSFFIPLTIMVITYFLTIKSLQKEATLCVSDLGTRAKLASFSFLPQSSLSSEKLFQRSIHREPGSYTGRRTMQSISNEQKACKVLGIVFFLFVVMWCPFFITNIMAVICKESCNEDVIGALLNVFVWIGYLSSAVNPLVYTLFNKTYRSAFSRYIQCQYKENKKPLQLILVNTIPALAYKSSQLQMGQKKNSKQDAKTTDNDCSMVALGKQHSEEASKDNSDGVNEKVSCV
Sequence of D(1B) dopamine receptor (Homo sapiens) (P21918 whole entry): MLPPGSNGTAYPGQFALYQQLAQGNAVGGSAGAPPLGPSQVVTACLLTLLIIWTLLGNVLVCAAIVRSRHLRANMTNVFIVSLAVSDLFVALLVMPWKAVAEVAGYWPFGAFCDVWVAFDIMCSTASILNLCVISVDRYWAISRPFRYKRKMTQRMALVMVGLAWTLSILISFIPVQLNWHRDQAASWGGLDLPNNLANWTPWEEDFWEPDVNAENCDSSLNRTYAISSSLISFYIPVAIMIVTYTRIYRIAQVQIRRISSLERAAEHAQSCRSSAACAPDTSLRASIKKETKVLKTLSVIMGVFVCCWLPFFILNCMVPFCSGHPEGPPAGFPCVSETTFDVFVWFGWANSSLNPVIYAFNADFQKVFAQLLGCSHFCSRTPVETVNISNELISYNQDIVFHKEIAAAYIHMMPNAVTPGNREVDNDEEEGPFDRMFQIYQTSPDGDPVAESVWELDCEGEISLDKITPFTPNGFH
Sequence of 5-hydroxytryptamine receptor 1E (Homo sapiens) (P28566 whole entry): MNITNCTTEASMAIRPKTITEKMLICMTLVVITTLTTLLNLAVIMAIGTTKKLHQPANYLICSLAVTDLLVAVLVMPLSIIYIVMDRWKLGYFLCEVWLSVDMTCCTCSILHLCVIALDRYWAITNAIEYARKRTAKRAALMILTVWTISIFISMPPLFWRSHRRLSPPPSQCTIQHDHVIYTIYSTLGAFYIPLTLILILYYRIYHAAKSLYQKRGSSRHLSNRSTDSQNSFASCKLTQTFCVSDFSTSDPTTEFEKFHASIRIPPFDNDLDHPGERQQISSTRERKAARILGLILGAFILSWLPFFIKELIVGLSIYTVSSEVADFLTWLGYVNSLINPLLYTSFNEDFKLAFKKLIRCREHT
Sequence of Sigma intracellular receptor 2 (Homo sapiens) (Q5BJF2 whole entry): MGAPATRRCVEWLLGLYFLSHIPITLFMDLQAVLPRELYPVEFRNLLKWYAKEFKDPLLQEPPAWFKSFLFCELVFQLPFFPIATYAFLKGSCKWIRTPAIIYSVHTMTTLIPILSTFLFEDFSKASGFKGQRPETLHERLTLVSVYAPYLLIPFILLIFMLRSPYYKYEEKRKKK
Sequence of D(2) dopamine receptor (Homo sapiens) (P14416 whole entry): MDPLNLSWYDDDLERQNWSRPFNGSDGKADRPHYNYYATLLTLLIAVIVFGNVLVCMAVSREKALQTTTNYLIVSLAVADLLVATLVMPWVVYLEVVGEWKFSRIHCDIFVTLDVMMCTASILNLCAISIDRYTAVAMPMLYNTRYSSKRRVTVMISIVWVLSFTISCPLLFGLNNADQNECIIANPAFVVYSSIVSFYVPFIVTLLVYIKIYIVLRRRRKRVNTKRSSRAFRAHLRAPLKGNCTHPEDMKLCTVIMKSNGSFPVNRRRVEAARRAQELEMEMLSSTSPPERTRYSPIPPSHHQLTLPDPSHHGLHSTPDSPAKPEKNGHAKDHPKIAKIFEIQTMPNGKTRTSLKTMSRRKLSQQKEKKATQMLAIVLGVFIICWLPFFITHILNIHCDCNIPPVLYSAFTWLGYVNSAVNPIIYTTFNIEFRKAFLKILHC
Sequence of 5-hydroxytryptamine receptor 1B (Homo sapiens) (P28222 whole entry): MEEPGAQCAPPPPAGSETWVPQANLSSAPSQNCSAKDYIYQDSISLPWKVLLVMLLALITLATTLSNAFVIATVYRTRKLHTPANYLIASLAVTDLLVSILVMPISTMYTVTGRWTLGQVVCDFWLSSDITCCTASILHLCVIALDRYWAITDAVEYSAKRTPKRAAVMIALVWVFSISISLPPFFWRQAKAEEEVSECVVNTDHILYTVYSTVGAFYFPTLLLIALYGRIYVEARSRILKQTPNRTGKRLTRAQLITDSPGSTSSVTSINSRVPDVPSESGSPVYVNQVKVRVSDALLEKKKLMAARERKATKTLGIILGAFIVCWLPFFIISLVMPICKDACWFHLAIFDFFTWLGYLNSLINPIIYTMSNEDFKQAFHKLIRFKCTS
Sequence of Sodium-dependent serotonin transporter (Homo sapiens) (P31645 whole entry, looked up): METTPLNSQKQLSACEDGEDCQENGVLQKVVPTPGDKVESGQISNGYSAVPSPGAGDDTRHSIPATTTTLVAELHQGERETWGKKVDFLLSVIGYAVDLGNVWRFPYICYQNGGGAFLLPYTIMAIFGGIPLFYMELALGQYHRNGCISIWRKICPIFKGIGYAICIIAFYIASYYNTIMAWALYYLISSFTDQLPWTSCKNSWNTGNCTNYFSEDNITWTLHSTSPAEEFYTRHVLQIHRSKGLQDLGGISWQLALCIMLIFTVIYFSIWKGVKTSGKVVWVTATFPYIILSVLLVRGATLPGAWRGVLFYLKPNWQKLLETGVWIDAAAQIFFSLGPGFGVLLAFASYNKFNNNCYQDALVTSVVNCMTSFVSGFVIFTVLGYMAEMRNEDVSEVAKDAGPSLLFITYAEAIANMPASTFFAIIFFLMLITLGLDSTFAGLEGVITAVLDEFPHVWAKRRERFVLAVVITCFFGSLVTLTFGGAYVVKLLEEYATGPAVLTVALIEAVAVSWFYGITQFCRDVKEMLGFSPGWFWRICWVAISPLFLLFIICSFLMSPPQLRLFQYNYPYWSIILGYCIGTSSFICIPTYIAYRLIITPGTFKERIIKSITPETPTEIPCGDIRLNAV

In general, inhibition refers to the relative decrease from the control value, in per cent. Regarding `O=C(O)C1CN(Cc2ccc(OCc3ccc(Cl)c(Cl)c3)cc2)C1`, the inhibition in assay [1] is 10%; in assay [2] it was -0.54%; in assay [3], -7.03%; in assay [4], 76.9%; in assay [5] it was -9.84%; in assay [6], -5.98%. The inhibition in [7] is -4.42%; in [8], 5.45%; in [9], 55.1%; in [10], -7.92%; in assay [11], -9.54%; in assay [12], 3.35%. In addition, the inhibition is -5.07% in assay [13], -4% in [14] and -8.5% in assay [15].
Turning to `O=C(O)c1cc(-c2ccc(C3CCNCC3)cc2)c2ccc(-c3ccc(C(F)(F)F)cc3)cc2c1`, the inhibition was 27.2% in assay [1]; 14% in [16]; 11.9% in [17]; 47% in assay [3]; 31.5% in assay [4]; 4.44% in assay [5]. The inhibition was 81% in assay [6]; 10.6% in [7]; 11.3% in assay [8]; 28.4% in [9]; 19.2% in assay [10]; 81.1% in assay [18]. For the same compound, the inhibition in assay [11] is 51.5%; in [12] it was 21.7%; in assay [13], 10.7%; in assay [14], 2.57%; in assay [19], 73.7%; in assay [15] it was 21.6%. The inhibition in assay [20] was 27%.
As to `CN1CCN(c2ccc(Nc3c4ccccc4nc4ccccc34)cc2)CC1`, the inhibition is 105% in [1]; 5.07% in [16]; -0.18% in assay [17]; 50.9% in assay [2]; 0.45% in assay [3]; 86.4% in assay [4]. Moreover, the inhibition in assay [5] was 87.7%; in assay [6], 14.1%; in [7] it was 82.6%; in [8] it was 13.8%; in assay [9] it was 5.02%; in [10], 38.7%. The inhibition in [18] is 70.8%; in [11], 84.4%; in assay [12], 6%; in [13], 63.8%; in assay [14], 46.2%; in [19], 30.3%. Moreover, the inhibition in assay [15] is 32%.
In the case of `CCCCCCCCCCCCC/C=C/[C@@H](O)[C@@H](N)COP(=O)(O)O`, the inhibition is -4.87% in assay [1]; 20.4% in [16]; 10.6% in [17]; 0.96% in assay [3]; 63.8% in [4]; -0.47% in [5]. In addition, the inhibition is 22.7% in assay [6]; 6.7% in assay [7]; 3.57% in assay [8]; -3.21% in assay [9]; 6.18% in assay [10]; 79.4% in assay [18]. The inhibition in assay [11] was 16.1%; in [12] it was 64.6%; in [13] it was -7.68%; in assay [14], 14.4%; in assay [19] it was 8.79%; in [15] it was -1.93%. The inhibition in assay [20] is 2.88%.
Consider `COc1ccc(NC(=O)c2ccc(-c3ccc(-c4noc(C)n4)cc3C)cc2)cc1OCCN(C)C`, for which the inhibition in assay [1] was 79%; in assay [16] it was 0.83%; in assay [17] it was 34.6%; in assay [2] it was 17.3%; in [3], 4.01%; in assay [4], 70%. Also, the inhibition is 55.4% in assay [5]; 48.4% in assay [6]; 65.4% in assay [7]; 95.4% in assay [9]; 44% in assay [10]; 84.2% in assay [18]. For the same compound, the inhibition in assay [11] was 78.8%; in assay [12], 31.1%; in assay [13] it was 80.8%; in [14], 52.5%; in assay [19], 101%; in assay [15], 5.18%. In addition, the inhibition in assay [20] was 47.9%.
In the case of `Cc1nc(-c2ccc(C(F)(F)F)cc2)sc1COc1ccc([C@H](CC(=O)O)c2ccon2)cc1`, the inhibition was 2.28% in [1]; 23% in [16]; 16.7% in assay [17]; 24.6% in assay [3]; 37.7% in [4]; 21.4% in assay [5]. The inhibition was -0.99% in [6]; 9.74% in assay [7]; 20.3% in assay [8]; 48.3% in [9]; 6.61% in assay [10]; 26.5% in [18]. The inhibition is 4.07% in [11], 11.6% in assay [12], 25.2% in assay [13] and 39.7% in assay [14].
`CN[C@@H]1CCc2[nH]c3ccc(C(N)=O)cc3c2C1`: the inhibition in assay [16] is 2.74%; in [17], 67.2%; in [2], 11.8%; in [3], 1.5%; in assay [4] it was 42.1%; in [5] it was 7.67%. Besides, the inhibition is 20.9% in [6]; 11.7% in assay [7]; 24.2% in assay [8]; 16.6% in assay [9]; 5.76% in assay [10]; 54.9% in assay [18]. Further, the inhibition in [11] was 92%; in assay [12], -4.51%; in [13] it was 10.5%; in assay [14], 79.1%; in assay [19], 88.2%; in assay [15], 24.7%.
